From patent publication US9828393B2, “Silylalkyloxyaryl compounds and methods for treating cancer” (THE REGENTS OF THE UNIVERSITY OF COLORADO, a body corporate, priority 2013, dated 2017) come the findings set out here.

One assay concerns K-562. Description: NCI-60 cell line screen (SRB), K-562. The class given is cell-based, human. The note with it: Homo sapiens, K562; Leukemia; K-562; 48 h drug incubation; read-out: GI50. The procedure: (§1) Drug sensitivity data are provided as GI50s (concentrations required to inhibit growth by 50%). The first row of the text file identifies cell lines, separated by tabs. Subsequent rows contain compound number, compound name, and GI50 for each cell line, each separated by a tab. […] For a typical screening experiment, cells are inoculated into 96 well microtiter plates in 100 μL at plating densities ranging from 5,000 to 40,000 cells/well depending on the doubling time of individual cell lines. After cell inoculation, the microtiter plates are incubated at 37° C., 5% CO2, 95% air and 100% relative humidity for 24 h prior to addition of experimental drugs. After 24 h, two plates of each cell line are fixed in situ with TCA, to represent a measurement of the cell population for each cell line at the time of drug addition (Tz). Experimental drugs are solubilized in dimethyl sulfoxide at 400-fold the desired final maximum test concentration and stored frozen prior to use. At the time of drug addition, an aliquot of frozen concentrate is thawed and diluted to twice the desired final maximum test concentration with complete medium containing 50 μg/ml gentamicin. Additional four, 10-fold or one-half log serial dilutions are made to provide a total of five drug concentrations plus control. Aliquots of 100 μl of these different drug dilutions are added to the appropriate microtiter wells already containing 100 μl of medium, resulting in the required final drug concentrations. Following drug addition, the plates are incubated for an additional 48 h at 37° C., 5% CO2, 95% air, and 100% relative humidity. For adherent cells, the assay is terminated by the addition of cold TCA. Cells are fixed in situ by the gentle addition of 50 μl of cold 50% (w/v) TCA (final concentration, 10% TCA) and incubated for 60 minutes at 4° C. The supernatant is discarded, and the plates are washed five times with tap water and air dried. Sulforhodamine B (SRB) solution (100 μl) at 0.4% (w/v) in 1% acetic acid is added to each well, and plates are incubated for 10 minutes at room temperature. After staining, unbound dye is removed by washing five times with 1% acetic acid and the plates are air dried. Bound stain is subsequently solubilized with 10 mM trizma base, and the absorbance is read on an automated plate reader at a wavelength of 515 nm. For suspension cells, the methodology is the same except that the assay is terminated by fixing settled cells at the bottom of the wells by gently adding 50 μl of 80% TCA (final concentration, 16% TCA). Using the seven absorbance measurements [time zero, (Tz), control growth, (C), and test growth in the presence of drug at the five concentration levels (Ti)], the percentage growth is calculated at each of the drug concentrations levels. […]

For the next assay, the system named is A549/ATCC. Nature of the assay: NCI-60 cell line screen (SRB), A549/ATCC. The class given is cell-based, human. The note with it: Homo sapiens; Non-Small Cell Lung Cancer; A549/ATCC; 48 h drug incubation; read-out: GI50. The procedure: as §1
For the next assay, the system named is NCI-H322M. Nature of the assay: NCI-60 cell line screen (SRB), NCI-H322M. The note with it: Homo sapiens, Non-Small Cell Lung Cancer, 48 h drug incubation, read-out: GI50. The class given is cell-based, human. The procedure: as §1
A further assay has as its system NCI-H522. Description: NCI-60 cell line screen (SRB), NCI-H522. The class given is cell-based, human. The conditions noted are these: Homo sapiens; Non-Small Cell Lung Cancer; NCI-H522; 48 h drug incubation; read-out: GI50. As to the method:
as §1

Another assay deals with SW-620. Description: NCI-60 cell line screen (SRB), SW-620. The class given is cell-based, human. The note with it: Homo sapiens; Colon Cancer; SW-620; 48 h drug incubation; read-out: GI50. As to the method: as §1
The subject of another assay is MALME-3M. Description: NCI-60 cell line screen (SRB), MALME-3M. Type of assay: cell-based, human. The note with it: Homo sapiens; Melanoma; MALME-3M; 48 h drug incubation; read-out: GI50. The procedure:
as §1

In a further assay the test system is M14. Description: NCI-60 cell line screen (SRB), M14. The class given is cell-based, human. The conditions noted are these: Homo sapiens; Melanoma; M14; 48 h drug incubation; read-out: GI50. As to the method:
as §1

The subject of the next assay is MDA-MB-435. Description: NCI-60 cell line screen (SRB), MDA-MB-435. Type of assay: cell-based, human. The note with it: Homo sapiens; Melanoma; MDA-MB-435; 48 h drug incubation; read-out: GI50. The procedure: as §1
The test system of another assay is IGROV1. Nature of the assay: NCI-60 cell line screen (SRB), IGROV1. The note with it: Homo sapiens, IGROV-1; Ovarian Cancer; IGROV1; 48 h drug incubation; read-out: GI50. The class given is cell-based, human. As to the method:
as §1

In a further assay the test system is OVCAR-5. Nature of the assay: NCI-60 cell line screen (SRB), OVCAR-5. The class given is cell-based, human. The note with it: Homo sapiens; Ovarian Cancer; OVCAR-5; 48 h drug incubation; read-out: GI50. The procedure: as §1
The next assay has as its system OVCAR-8. Description: NCI-60 cell line screen (SRB), OVCAR-8. Type of assay: cell-based, human. The note with it: Homo sapiens; Ovarian Cancer; OVCAR-8; 48 h drug incubation; read-out: GI50. As to the method: as §1
Another assay deals with SK-OV-3. Description: NCI-60 cell line screen (SRB), SK-OV-3. Type of assay: cell-based, human. The conditions noted are these: Homo sapiens; Ovarian Cancer; SK-OV-3; 48 h drug incubation; read-out: GI50. The procedure: as §1
For assay [1], the system named is Ovarian Cancer cell lines. Nature of the assay: NCI-60 cell line screen, Ovarian Cancer panel average. The note with it: Homo sapiens; average over Ovarian Cancer panel; read-out: GI50 Average. The class given is cell-based, human. The procedure:
as §1

A further assay has as its system SN12C. Description: NCI-60 cell line screen (SRB), SN12C. Type of assay: cell-based, human. The conditions noted are these: Homo sapiens, Renal Cancer, 48 h drug incubation, read-out: GI50. The procedure: as §1
In the next assay the test system is TK-10. Nature of the assay: NCI-60 cell line screen (SRB), TK-10. Type of assay: cell-based, human. The conditions noted are these: Homo sapiens; Renal Cancer; TK-10; 48 h drug incubation; read-out: GI50. As to the method:
as §1

The next assay deals with DU145. Nature of the assay: NCI-60 cell line screen (SRB), DU145. The class given is cell-based, human. The conditions noted are these: Homo sapiens, DU-145; Prostate Cancer; DU145; 48 h drug incubation; read-out: GI50. The procedure: as §1
For the next assay, the system named is MCF-7. Description: NCI-60 cell line screen (SRB), MCF-7. The class given is cell-based, human. The conditions noted are these: Homo sapiens, MCF7; Breast Cancer; MCF-7; 48 h drug incubation; read-out: GI50. The procedure: as §1
The next assay relates to MDA-MB-231/ATCC. Description: NCI-60 cell line screen (SRB), MDA-MB-231/ATCC. The class given is cell-based, human. The note with it: Homo sapiens; Breast Cancer; MDA-MB-231/ATCC; 48 h drug incubation; read-out: GI50. The procedure:
as §1

The target of assay [2] is EZH2 (Enhancer of Zeste Homologue 2), a Histone H3 Lys 27 (H3K27) methyltransferase (Homo sapiens, UniProt Q15910). Nature of the assay: OIDD in vitro target-based assay, EZH2 inhibitory activity. The conditions noted are these: OIDD screen; FIG. 1. Type of assay: biochemical. As to the method: An organosilicon compound of the invention (GH1503) was tested using the in vitro target-based assays through an open innovation drug discovery program (OIDD). The organosilicon compound tested was given OIDD number 2351349879. […] This enzyme plays a critical role in regulating gene expression and is highly expressed in a wide range of cancer types, including bladder, breast, colon, lung, melanoma, pancreatic cancer, melanoma, sarcoma and lymphomas.
Chain of EZH2 (Enhancer of Zeste Homologue 2), a Histone H3 Lys 27 (H3K27) methyltransferase (Q15910 whole entry): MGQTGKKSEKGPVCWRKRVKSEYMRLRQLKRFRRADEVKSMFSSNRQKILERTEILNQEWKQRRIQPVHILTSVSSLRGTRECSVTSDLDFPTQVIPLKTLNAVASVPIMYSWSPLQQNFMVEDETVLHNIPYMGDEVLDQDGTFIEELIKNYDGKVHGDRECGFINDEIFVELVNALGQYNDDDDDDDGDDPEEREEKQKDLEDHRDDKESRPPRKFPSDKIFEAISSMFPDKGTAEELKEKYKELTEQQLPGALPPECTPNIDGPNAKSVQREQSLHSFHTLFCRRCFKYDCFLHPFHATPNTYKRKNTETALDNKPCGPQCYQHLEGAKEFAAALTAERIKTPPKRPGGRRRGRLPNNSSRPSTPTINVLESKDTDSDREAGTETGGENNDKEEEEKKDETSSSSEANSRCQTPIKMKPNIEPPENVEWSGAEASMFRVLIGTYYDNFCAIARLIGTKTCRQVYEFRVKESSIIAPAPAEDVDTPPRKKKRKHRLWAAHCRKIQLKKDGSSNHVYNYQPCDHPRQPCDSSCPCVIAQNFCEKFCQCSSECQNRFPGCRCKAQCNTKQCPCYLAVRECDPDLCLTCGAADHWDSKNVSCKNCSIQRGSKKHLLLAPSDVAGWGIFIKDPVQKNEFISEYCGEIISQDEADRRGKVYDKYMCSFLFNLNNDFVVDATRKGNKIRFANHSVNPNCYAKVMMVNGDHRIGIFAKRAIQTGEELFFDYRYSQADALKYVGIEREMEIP
Chain of EZH2 (Enhancer of Zeste Homologue 2), a Histone H3 Lys 27 (H3K27) methyltransferase (O75530 whole entry partner): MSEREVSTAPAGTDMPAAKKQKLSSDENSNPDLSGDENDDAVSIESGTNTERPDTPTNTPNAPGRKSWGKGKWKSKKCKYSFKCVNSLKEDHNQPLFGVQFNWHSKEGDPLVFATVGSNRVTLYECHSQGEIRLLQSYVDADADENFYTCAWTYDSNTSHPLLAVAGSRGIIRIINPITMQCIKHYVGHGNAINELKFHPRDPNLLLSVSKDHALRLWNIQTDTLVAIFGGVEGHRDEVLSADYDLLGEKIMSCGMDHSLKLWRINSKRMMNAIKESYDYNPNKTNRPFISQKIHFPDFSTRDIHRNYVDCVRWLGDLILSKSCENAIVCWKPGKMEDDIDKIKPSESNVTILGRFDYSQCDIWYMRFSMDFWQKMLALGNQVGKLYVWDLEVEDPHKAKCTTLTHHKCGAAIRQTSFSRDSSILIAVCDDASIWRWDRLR
Chain of EZH2 (Enhancer of Zeste Homologue 2), a Histone H3 Lys 27 (H3K27) methyltransferase (Q15022 whole entry partner): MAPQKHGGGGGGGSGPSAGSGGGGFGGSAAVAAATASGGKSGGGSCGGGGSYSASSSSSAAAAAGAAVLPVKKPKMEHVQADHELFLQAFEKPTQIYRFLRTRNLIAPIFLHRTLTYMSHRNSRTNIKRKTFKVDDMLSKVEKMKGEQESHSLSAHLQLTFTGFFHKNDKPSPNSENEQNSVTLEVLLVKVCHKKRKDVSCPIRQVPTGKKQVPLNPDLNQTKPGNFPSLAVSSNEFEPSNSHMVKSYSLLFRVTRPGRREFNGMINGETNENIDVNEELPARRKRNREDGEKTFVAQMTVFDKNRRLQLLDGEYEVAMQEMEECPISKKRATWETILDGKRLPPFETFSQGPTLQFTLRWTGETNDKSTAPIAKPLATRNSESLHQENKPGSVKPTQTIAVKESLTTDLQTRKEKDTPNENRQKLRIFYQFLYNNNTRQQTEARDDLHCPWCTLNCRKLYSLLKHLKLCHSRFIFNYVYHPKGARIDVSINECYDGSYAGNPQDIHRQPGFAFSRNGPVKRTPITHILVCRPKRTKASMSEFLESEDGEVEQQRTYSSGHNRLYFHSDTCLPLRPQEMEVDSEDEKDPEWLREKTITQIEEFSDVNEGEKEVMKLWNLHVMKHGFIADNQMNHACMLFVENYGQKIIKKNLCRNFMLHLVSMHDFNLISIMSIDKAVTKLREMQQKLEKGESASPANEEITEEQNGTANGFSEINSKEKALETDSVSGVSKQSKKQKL

As for `CCCC[Si](C)(C)COc1ccc(C(=O)N[C@@H](Cc2ccc(OCc3c(Cl)cccc3Cl)cc2)C(=O)NC2CC(C)(C)NC(C)(C)C2)cc1` [GH1503, N^α-{4-[(butyldimethylsilyl)methoxy]-benzoyl}-N-(2,2,6,6-tetramethylpiperidin-4-yl)-[O-(2,6-dichlorobenzyl)-L-tyrosinamide]], the GI50 in the assay with K-562 is 333 nM; in the assay on A549/ATCC, 332 nM; in the assay with NCI-H322M, 1570 nM; in the assay with NCI-H522 it was 1970 nM; with SW-620, 318 nM; in the assay with MALME-3M, 1200 nM. Moreover, the GI50 with M14 came out at 334 nM; in the assay with MDA-MB-435 it was 250 nM; with IGROV1, 704 nM; in the assay on OVCAR-5 it was 1620 nM; in the assay on OVCAR-8 it was 263 nM; in the assay with SK-OV-3 it was 2030 nM. Besides, the GI50 was determined as 1050 nM in [1]; 613 nM in the assay with SN12C; 1890 nM in the assay on TK-10; 274 nM in the assay with DU145; 356 nM in the assay on MCF-7; 494 nM in the assay on MDA-MB-231/ATCC. The IC50 result in assay [2] is on record as “in the micromolar range”.
